In patent US10562869B2, “Oxadiazole compounds” (REMYND NV, priority 2014, dated 2020):

Test system: M17_3SYN cells
Assay: Paraquat-induced cytotoxicity (LDH) in α-synuclein over-expressing M17_3SYN neuroblastoma cells
Format: cell-based, human
Details: Homo sapiens, Neuroblastoma cell, 48 h, toxicity inhibition (LDH) in M17_3SYN cells challenged with 6 mM paraquat, 2 days; read-out: SYN EC50
From the text: A α-synuclein expression plasmid was constructed by subcloning the NcoI/XhoI fragment from 212T-SYN(WT) (Griffioen et al., Biochem Biophys Acta (2006) 1762(3):312-318) containing the cDNA of human wild type α-synuclein correspondingly into a standard mammalian expression vector pcDNA3.1 resulting in plasmid pcDNA3.1-SYNwt. Plasmids pcDNA3.1 and pcDNA3.1-SYNwt were transfected into human neuroblastoma cells (BE-M17; ATCC No. CRL-2267™) using lipofectamine reagent and subsequently, independent clonal cell lines with the plasmids stably integrated into the genome were selected by antibiotic resistance selection (Geneticin (G418)), resulting in cell lines M17.pcDNA3 and M17_3SYN. Overexpression of α-synuclein in the M17_3SYN cell line was confirmed by Western blot analysis.
Due to the high levels of α-synuclein, M17_3SYN cells were sensitive to paraquat, a well-known risk factor Parkinson's disease and of synuclein-dependent neuronal degeneration. Cytotoxicity of cells was measured by quantification of lactate dehydrogenase (LDH) levels. In dead cells, LDH leaked out of the cells into the medium due to a loss of plasma-membrane integrity.
[…], primary pre-cultures of M17.pcDNA3 (as possible control) and M17_3SYN cells were prepared, starting from a stock culture, at a density of 20.000-40.000 cells/cm2 in culture medium (Opti-MEM® Reduced Serum Medium with Phenol Red (Invitrogen, Cat. 31985-047) supplemented with 10% FCS, 1 mM sodium pyruvate, 1×NEAA, 500 μg/ml G418 and 0.5×antibiotic/antimycotic (ABAM)). 3 days later these primary pre-cultures were used as a starting point to make secondary pre-cultures at a density of 50.000-100.000 cells/cm^2. At the day of the experiment these secondary precultures were diluted to ˜0.5·10^6 cells/ml in detection medium (Opti-MEM® Reduced-Serum Medium without Phenol Red (Invitrogen, Cat. 11085-021) supplemented with 10% FCS, 1 mM sodium pyruvate, 1×NEAA, 500 μg/ml G418 and 0.5×ABAM) and 60 μL of this suspension was dispensed per well into a 96-well microtiter plate. After 3 hours of incubation at 37° C./5% CO2 an equal volume of detection medium containing a final concentration of 6 mM Paraquat was added and subsequently incubated for 2 days at 37° C./5% CO2. Then LDH activity was determined using the Promega Cytotox 96 Non-Radioactive cytotoxicity assay (Promega, Cat. G1780), according to the manufacturer's instructions. Cytotoxicity was defined as the ratio of LDH relative to the total LDH in the cells and supernatant.
The assay described above using the M17_3SYN cell line allowed screening compounds for their ability to decrease cytotoxicity in PQ-challenged cells. Compounds of the invention were tested for their ability to decrease toxicity at different concentrations, ranging from low non-effective concentrations to high effective concentrations. Afterwards, a dose-dependent inhibition curve was used to calculate the EC50. A compound was considered to be active in this test when it inhibited toxicity by more than 20% relative to untreated M17_3SYN cells at a concentration of 10 μM or lower.

| Compound | EC50 [nM] |
| --- | --- |
| COc1ccc(S(=O)(=O)N2CCN(c3nc(C(C)(C)c4cccc(Cl)c4)no3)CC2)cc1 [Cmpd152, 1-{3-[1-(3-Chloro-phenyl)-1-methyl-ethyl]-[1,2,4]oxadiazol-5-yl}-4-(4-methoxy-benzenesulfonyl)-piperazine] | 1 |
| CCC(c1ccccc1)c1noc(N2CCN(S(=O)(=O)c3ccc(OC)cc3)CC2)n1 (stereo not shown) [Cmpd044, 5-(4-((4-Methoxyphenyl)sulfonyl)piperazin-1-yl)-3-(1-phenylpropyl)-1,2,4-oxadiazole] | 15 |
| CCOc1ccc(S(=O)(=O)N2CCN(c3nc(CC(F)(F)F)no3)CC2)cc1 [Cmpd166, 5-(4-((4-Ethoxyphenyl)sulfonyl)piperazin-1-yl)-3-(2,2,2-trifluoroethyl)-1,2,4-oxadiazole] | 368 |
| CC(C)(c1ccc(F)cc1)c1noc(N2CCN(S(=O)(=O)c3ccc(OC(F)F)cc3)CC2)n1 [Cmpd114, 1-(4-Difluoromethoxy-benzenesulfonyl)-4-{3-[1-(4-fluoro-phenyl)-1-methyl-ethyl]-[1,2,4]oxadiazol-5-yl}-piperazine] | 17 |
| COc1ccc(S(=O)(=O)N2CCN(c3nc(Cc4cccc(F)c4)no3)CC2)cc1 [Cmpd084, 1-[3-(3-Fluoro-benzyl)-[1,2,4]oxadiazol-5-yl]-4-(4-methoxy-benzenesulfonyl)-piperazine] | 5 |
| O=S(=O)(c1ccc(OC(F)F)cc1)N1CCN(c2nc(Cc3cccc(Cl)c3)no2)CC1 [Cmpd074, 1-[3-(3-Chloro-benzyl)-[1,2,4]oxadiazol-5-yl]-4-(4-difluoromethoxy-benzenesulfonyl)-piperazine] | 10 |
| COc1ccc(S(=O)(=O)N2CCN(c3nc(CCC(F)(F)F)no3)CC2)cc1 [Cmpd171, 5-(4-((4-Methoxyphenyl)sulfonyl)piperazin-1-yl)-3-(3,3,3-trifluoropropyl)-1,2,4-oxadiazole] | 248 |
| CCOc1ccc(S(=O)(=O)N2CCN(c3nc(Cc4ccccc4)no3)CC2)cc1 [Cmpd038, 1-(3-Benzyl-[1,2,4]oxadiazol-5-yl)-4-(4-ethoxy-benzenesulfonyl)-piperazine] | 13 |
| CC[C@H](c1ccccc1)c1noc(N2CCN(S(=O)(=O)c3ccc(OC)cc3)CC2)n1 [Cmpd051, 1-(4-Methoxy-benzenesulfonyl)-4-[3-((R)-1-phenyl-propyl)-[1,2,4]oxadiazol-5-yl]-piperazine] | 46 |
| CCOc1ccc(S(=O)(=O)N2CCN(c3nc(C4(c5ccc(Cl)cc5)CC4)no3)CC2)cc1 [Cmpd139, 1-{3-[1-(4-Chloro-phenyl)-cyclopropyl]-[1,2,4]oxadiazol-5-yl}-4-(4-ethoxy-benzenesulfonyl)-piperazine] | 356 |
| CCCc1noc(N2CCN(S(=O)(=O)c3ccc(OC)cc3)CC2)n1 [Cmpd207, 5-(4-((4-Methoxyphenyl)sulfonyl)piperazin-1-yl)-3-propyl-1,2,4-oxadiazole] | 406 |
| COc1ccc(S(=O)(=O)N2CCN(c3nc(Cc4ccccc4)no3)CC2)cc1 [Cmpd037, 1-(3-Benzyl-[1,2,4]oxadiazol-5-yl)-4-(4-methoxy-benzenesulfonyl)-piperazine] | 3 |
| O=S(=O)(c1ccc(OC(F)F)cc1)N1CCN(c2nc(Cc3ccc(Cl)cc3)no2)CC1 [Cmpd054, 1-[3-(4-Chloro-benzyl)-[1,2,4]oxadiazol-5-yl]-4-(4-difluoromethoxy-benzenesulfonyl)-piperazine] | 19 |
| O=S(=O)(c1ccc(OC(F)(F)F)cc1)N1CCN(c2nc(Cc3cccc(F)c3)no2)CC1 [Cmpd087, 1-[3-(3-Fluoro-benzyl)-[1,2,4]oxadiazol-5-yl]-4-(4-trifluoromethoxy-benzenesulfonyl)-piperazine] | 497 |
| COc1ccc(S(=O)(=O)N2CCN(c3nc(C4CCCCC4)no3)CC2)cc1 [Cmpd210, 3-Cyclohexyl-5-(4-((4-methoxyphenyl)sulfonyl)piperazin-1-yl)-1,2,4-oxadiazole] | 327 |
| O=S(=O)(c1ccc(OC(F)F)cc1)N1CCN(c2nc(C3C[C@@H]4CC[C@H]3C4)no2)CC1 (stereo partly drawn) [Cmpd192, 3-((1 S,4R)-bicyclo[2.2.1]heptan-2-yl)-5-(4-((4-(difluoromethoxy)phenyl)sulfonyl)piperazin-1-yl)-1,2,4-oxadiazole] | 164 |

| Compound | EC50 [nM] |
| --- | --- |
| CSc1ccc(S(=O)(=O)N2CCN(c3nc(C(C)(C)c4cccc(Cl)c4)no3)CC2)cc1 [Cmpd155, 1-{3-[1-(3-Chloro-phenyl)-1-methyl-ethyl]-[1,2,4]oxadiazol-5-yl}-4-(4-methylsulfanyl-benzenesulfonyl)-piperazine] | 2 |
| O=S(=O)(c1ccc(OC(F)F)cc1)N1CCN(c2nc(CC3CC3)no2)CC1 [Cmpd160, 3-(Cyclopropylmethyl)-5-(4-((4-(difluoromethoxy)phenyl)sulfonyl)piperazin-1-yl)-1,2,4-oxadiazole] | 148 |
| O=S(=O)(c1ccc(OC(F)F)cc1)N1CCN(c2nc(Cc3ccc(F)c(F)c3)no2)CC1 [Cmpd101, 1-[3-(3,4-Difluoro-benzyl)-[1,2,4]oxadiazol-5-yl]-4-(4-difluoromethoxy-benzenesulfonyl)-piperazine] | 50 |
| CC(C)(c1ccccc1)c1noc(N2CCN(S(=O)(=O)c3ccc(OC(F)F)cc3)CC2)n1 [Cmpd196, 1-(4-Difluoromethoxy-benzenesulfonyl)-4-[3-(1-methyl-1-phenyl-ethyl)-[1,2,4]oxadiazol-5-yl]-piperazine] | 8 |
| Cc1ccc(-c2noc(N3CCN(S(=O)(=O)c4ccc(C(F)(F)F)cc4)CC3)n2)cc1 [Cmpd016, 3-(p-Tolyl)-5-(4-((4-(trifluoromethyl)phenyl)sulfonyl)piperazin-1-yl)-1,2,4-oxadiazole] | 9 |
| COc1ccc(S(=O)(=O)N2CCN(c3nc(COc4ccccc4)no3)CC2)cc1 [Cmpd202, 5-(4-((4-Methoxyphenyl)sulfonyl)piperazin-1-yl)-3-(phenoxymethyl)-1,2,4-oxadiazole] | 11 |
| COc1ccc(S(=O)(=O)N2CCN(c3nc(C(C)(C)C)no3)CC2)cc1 [Cmpd209, 3-(Tert-butyl)-5-(4-((4-methoxyphenyl)sulfonyl)piperazin-1-yl)-1,2,4-oxadiazole] | 296 |
| COc1ccc(S(=O)(=O)N2CCN(c3nc(COc4ccc(Cl)cc4)no3)CC2)cc1 [Cmpd200, 3-((4-Chlorophenoxy)methyl)-5-(4-((4-methoxyphenyl)sulfonyl)piperazin-1-yl)-1,2,4-oxadiazole] | 22 |
| O=S(=O)(c1ccc(OC(F)F)cc1)N1CCN(c2nc(CC(F)(F)F)no2)CC1 [Cmpd167, 5-(4-((4-(Difluoromethoxy)phenyl)sulfonyl)piperazin-1-yl)-3-(2,2,2-trifluoroethyl)-1,2,4-oxadiazole] | 10000 |
| CSc1ccc(S(=O)(=O)N2CCN(c3nc(CCC(F)(F)F)no3)CC2)cc1 [Cmpd172, 5-(4-((4-(Methylthio)phenyl)sulfonyl)piperazin-1-yl)-3-(3,3,3-trifluoropropyl)-1,2,4-oxadiazole] | 166 |
| COc1ccc(S(=O)(=O)N2CCN(c3nc(COc4cccc(Cl)c4)no3)CC2)cc1 [Cmpd201, 3-((3-Chlorophenoxy)methyl)-5-(4-((4-methoxyphenyl)sulfonyl)piperazin-1-yl)-1,2,4-oxadiazole] | 11 |
| CCOc1ccc(S(=O)(=O)N2CCN(c3nc(Cc4cccc(F)c4)no3)CC2)cc1 [Cmpd091, 1-(4-Ethoxy-benzenesulfonyl)-4-[3-(3-fluoro-benzyl)-[1,2,4]oxadiazol-5-yl]-piperazine] | 57 |
| CCOc1ccc(S(=O)(=O)N2CCN(c3nc(CC4CC4)no3)CC2)cc1 [Cmpd162, 3-(Cyclopropylmethyl)-5-(4-((4-ethoxyphenyl)sulfonyl)piperazin-1-yl)-1,2,4-oxadiazole] | 224 |
| O=S(=O)(c1ccc(OC(F)F)cc1)N1CCN(c2nc(CCC(F)(F)F)no2)CC1 [Cmpd173, 5-(4-((4-(Difluoromethoxy)phenyl)sulfonyl)piperazin-1-yl)-3-(3,3,3-trifluoropropyl)-1,2,4-oxadiazole] | 438 |
| COc1ccc(S(=O)(=O)N2CCN(c3nc(CC(F)(F)F)no3)CC2)cc1 [Cmpd165, 5-(4-((4-Methoxyphenyl)sulfonyl)piperazin-1-yl)-3-(2,2,2-trifluoroethyl)-1,2,4-oxadiazole] | 32 |
